Measured values reported in US9925202B2, “Treatment of lymphangioleiomyomatosis” (THE BRIGHAM AND WOMEN'S HOSPITAL, INC., priority 2013, dated 2018).

Experiments:
[1] = system: LAM patient-derived 621-101 cells; experiment: Proliferation of 621-101 cells; assay type: cell-based, human
Method: (§1) Cell culture and reagents. ELT-3 cells (Eker rat uterine leiomyoma-derived) (22,23) and LAM patient-derived 621-101 cells were cultured in IIA complete medium. HeLa, U2OS and OVARC5 cells were cultured in DMEM supplemented with 10% FBS. 17-beta-estradiol (10 nM), rapamycin (20 nM, Biomols), NS398 (50 μM), aspirin (450 μM Sigma), and 15-epi-LXA4 (100 nM) were used as indicated.

[2] = system: A549 cells (Human lung adenocarcinoma); settings: reference 18; cited from earlier work
[3] = system: LAM patient-derived TSC2-deficient 621-101 cells; experiment: COX, phospho-protein and secreted prostaglandin levels in 621-101 cells (immunoblot, enzyme immunoassay); assay type: cell-based, human; settings: 24 hr; for COX-1 levels / COX-2 levels / phosphorylation of MAPK or S6: 50 μM NS398 or 450 μM aspirin, immunoblot
Method: as §1
(§2) Immunoblotting and antibodies. Cells were lysed in m-PER buffer (PIERCE). Antibodies were used: COX-1, COX-2, phospho-MAPK (T202/Y204), phospho-S6 (S235/236), Cleaved caspase 3, cleaved PARP (CELL SIGNALING), tuberin and c-Myc (SANTA CRUZ), smooth muscle actin (BIOGENEX), and beta-actin (SIGMA).
(§3) Quantification of prostaglandin levels. PGE2, 6-keto-PGF1α and creatinine were measured using enzyme immunoassay kits (Cayman Chemical). Levels of secreted prostaglandins were normalized to protein concentrations and expressed as pg/mg protein. Urinary levels of prostaglandins were normalized to creatinine levels and expressed as […].

[4] = system: TSC2-deficient cells; experiment: COX-2 activation and prostaglandin production in TSC2-deficient cells with Torin 1; assay type: cell-based; settings: specifically to TSC2-deficient cells
[5] = system: xenograft tumors of TSC2-deficient ELT3-luciferase-expressing cells; experiment: Aspirin in xenograft tumor model of ELT3-luciferase-expressing cells; assay type: in vivo, mice
Method: Animal studies. All animal work was performed in accordance with protocols approved by the IACUC-BWH. Female intact CB17-SCID mice were used as described previously (8, 24, 25). Aspirin (100 mg/kg/day, in drinking water) treatment was initiated five weeks post-cell inoculation. Urine specimens were collected.
as §2, §3
Statistical analyses. Statistical analyses were performed using Student's t-test when comparing two groups for in vitro and in vivo studies. Two-Way ANOVO test was performed in xenograft tumor-aspirin studies. Mann Whitney tests were used for prostaglandin quantification in clinical data.
To determine whether inhibition of COX-1 and/or COX-2 impacts the growth of LAM patient-derived cells, 621-101 cells were treated with Sulindac (a COX-1 inhibitor), NS398 (a COX-2 inhibitor), or aspirin (an irreversible COX-1 and COX-2 inhibitor) for 24 hr. […] The inventors next assessed the possible benefit of aspirin in a xenograft tumor model of TSC2-deficient ELT3-luciferase-expressing cells. Aspirin treatment for two-three weeks decreased the intensity of bioluminescence (FIG. 3c), reduced the growth of xenograft tumors by 35% (FIG. 3d), and decreased the tumor size (FIG. 3e). Tumors also had reduced expression of COX-2 and c-Myc, and increased levels of cleaved-caspase-3 and cleaved-PARP (Data not shown).

[6] = system: tumors of TSC2-deficient LAM patient-derived cells; experiment: Metastatic tumor model of LAM derived cells; assay type: in vivo, mice; settings: aspirin treatment
Method: Arrows indicate individual tumors.
Bioluminescent imaging was performed weekly. Tumor area was normalized to the baseline before drug administration.
FIGS. 3f and 3g show the urinary PGE2 that was quantified from mice treated with aspirin or vehicle for 7 and 30 days. *p<0.05.

[7] = system: LAM patients; experiment: Exhaled breath condensate and lung function in LAM patients on aspirin; assay type: in vivo, human
Method: To examine the functional effect of COX-2 in LAM lungs, 15-epi-lipoxin A4 (LXA4), a product of aspirin-acetylated COX-2, was measured in exhaled breath condensate (EBC) from three LAM subjects (data not shown). 15-epi-LXA4 was detected in EBC and the levels were increased with aspirin (data not shown).

[8] = aspirin 100 mg/kg/day in drinking water, two-three weeks
[9] = aspirin-treated mice, data not shown
[10] = LAM patients, aspirin treatment

CCCCC[C@@H](O)/C=C/C=C\C=C\C=C\[C@@H](O)[C@@H](O)CCCC(=O)O [15-epi-LXA4, 15-epi-lipoxin A4]
proliferation of LAM patient-derived 621-101 cells ([1]; 15-epi-LXA4 100 nM, data not shown): suppressed | proliferation of A549 cells [2]: decreases

CS(=O)(=O)Nc1ccc([N+](=O)[O-])cc1OC1CCCCC1 [NS398]
COX-1 levels [3]: reduced | COX-2 levels [3]: reduced | phosphorylation of MAPK or S6 [3]: without affecting

CCC(=O)N1CCN(c2ccc(-n3c(=O)ccc4cnc5ccc(-c6cnc7ccccc7c6)cc5c43)cc2C(F)(F)F)CC1 [Torin 1]
COX-2 activation and prostaglandin production [4]: suppresses

CC(=O)Oc1ccccc1C(=O)O [aspirin]
intensity of bioluminescence [5, 8]: decreased | reduction of growth of xenograft tumors [5, 8]: 35% | tumor size [5, 8]: decreased | urinary levels of PGE2 and 6-Keto-PGF1α ([5]; aspirin-treated mice bearing ELT3 xenograft tumors, data not shown): markedly reduced | apoptosis in xenograft tumors ([5]; aspirin-treated mice compared to vehicle-treatment): higher levels | expression of COX-2 and c-Myc in tumors [5, 9]: reduced | levels of cleaved-caspase-3 and cleaved-PARP in tumors [5, 9]: increased | COX-1 levels [3]: reduced | COX-2 levels [3]: reduced | phosphorylation of MAPK or S6 [3]: without affecting | PGE2 levels ([3]; aspirin 450 μM, conditioned media, ELISA): significantly decreased | growth of tumors of LAM derived cells [6]: decreased | urinary prostaglandins [6]: reduction | proliferation of 621-101 cells ([1]; aspirin 450 μM): reduced | lung function [7, 10]: improved | prostaglandin levels in exhaled breath condensate [7, 10]: reduced | 15-epi-LXA4 levels in exhaled breath condensate (EBC) ([7]; three LAM subjects, oral aspirin ingestion, data not shown): increased
